Experimental data as given in patent publication US10131653B2, “Heterocyclic compound” (TAKEDA PHARMACEUTICAL COMPANY LIMITED, priority 2015, dated 2018).
Counter-ions that a name gives are not always drawn. Like-named read-outs stand apart in the source and are kept apart here.

Columns and labels:
human OX1 receptor = target: T1, human OX1 receptor (Homo sapiens, UniProt O43613); test: Measurement of orexin receptor antagonistic activity (calcium fluorescence, FLIPRtetra); type: cell-based; details: CHO, read-out: Human Orexin1 receptor inhibition (at 10 μM)
T1 construct: expressed in transfected cells; host or cells: CHO cells
T1 sequence (O43613 1-425): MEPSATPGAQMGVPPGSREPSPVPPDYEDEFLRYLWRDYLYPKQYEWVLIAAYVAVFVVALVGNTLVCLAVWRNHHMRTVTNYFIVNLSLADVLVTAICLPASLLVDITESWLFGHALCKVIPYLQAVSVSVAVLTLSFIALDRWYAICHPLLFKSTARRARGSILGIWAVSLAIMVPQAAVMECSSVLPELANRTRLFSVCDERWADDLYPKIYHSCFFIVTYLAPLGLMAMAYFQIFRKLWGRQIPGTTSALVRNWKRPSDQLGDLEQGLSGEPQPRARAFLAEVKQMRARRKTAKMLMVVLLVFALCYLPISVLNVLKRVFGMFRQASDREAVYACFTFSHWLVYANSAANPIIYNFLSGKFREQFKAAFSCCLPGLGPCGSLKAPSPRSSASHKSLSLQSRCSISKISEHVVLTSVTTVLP
Procedure: (§1) Measurement of Orexin Receptor Antagonistic Activity
(§2) CHO cells forcibly expressing human OX1 receptor or human OX2 receptor were seeded in each well of 384 well black transparent bottom plate (BD Falcon) at 7,500 cells/well, and cultured for one day in a 5% CO2 incubator at 37° C. […] The plate was stood for 30 min in a 5% CO2 incubator at 37° C., and further stood at room temperature for 30 min. A test compound prepared by diluting with assay buffer B (HBSS, 20 mM HEPES, 0.1% BSA) was added at 10 μL/well, and then OX-A (OX1 receptor, final concentration; 1 nM) or OX-A (OX2 receptor, final concentration; 0.3 nM) was added at 10 μL/well, and the fluorescence value was measured by FLIPRtetra (Molecular Devices) every one sec for 2 min.

human OX2 receptor = target: T2, human OX2 receptor (Homo sapiens, UniProt O43614); test: as above; type: cell-based; details: CHO, read-out: Human Orexin2 receptor inhibition (at 10 μM)
T2 construct: expressed in transfected cells; host or cells: CHO cells
T2 sequence (O43614 1-444): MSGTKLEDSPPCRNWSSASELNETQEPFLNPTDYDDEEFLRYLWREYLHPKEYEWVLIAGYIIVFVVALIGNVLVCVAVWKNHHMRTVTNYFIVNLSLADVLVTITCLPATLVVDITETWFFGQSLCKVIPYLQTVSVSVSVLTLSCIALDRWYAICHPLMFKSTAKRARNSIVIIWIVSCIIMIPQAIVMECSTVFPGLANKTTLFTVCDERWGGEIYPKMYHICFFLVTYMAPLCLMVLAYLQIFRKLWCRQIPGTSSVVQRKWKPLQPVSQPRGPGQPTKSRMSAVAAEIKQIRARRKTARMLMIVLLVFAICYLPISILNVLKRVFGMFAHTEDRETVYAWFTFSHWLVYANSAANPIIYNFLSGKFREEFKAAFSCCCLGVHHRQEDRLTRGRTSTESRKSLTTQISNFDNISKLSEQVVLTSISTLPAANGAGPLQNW
Procedure: as §1, §2

[1] = 10 μM test compound, CHO cells expressing human OX1 receptor, OX-A 1 nM
[2] = 10 μM test compound, CHO cells expressing human OX2 receptor, OX-A 0.3 nM

| SMILES | inhibition at 10 µM (human OX1 receptor; [1]) [%] | inhibition at 10 µM (human OX2 receptor; [2]) [%] | inhibition at 10 µM (human OX1 receptor) [%] | inhibition at 10 µM (human OX2 receptor) [%] |
| --- | --- | --- | --- | --- |
| Cc1cc(N2CCN(C(=O)c3ccccc3-n3ncnn3)CCO2)nc(C)n1 [Example 31, (2-(2,6-dimethyl-pyrimidin-4-yl)-1,2,5-oxadiazepan-5-yl) (2-(2H-tetrazol-2-yl)phenyl) methanone] | -2 | 100 | – | – |
| Cc1cc(N2CCN(C(=O)c3ccccc3-c3cncs3)CCO2)nc(C)n1 [Example 32, (2-(2,6-dimethyl-pyrimidin-4-yl)-1,2,5-oxadiazepan-5-yl) (2-(1,3-thiazol-5-yl)phenyl) methanone] | 38 | 96 | – | – |
| Cc1cc(C)nc(N2CCN(C(=O)c3cc(C)ccc3-n3nccn3)CCO2)c1 [Example 34, (2-(4,6-dimethylpyridin-2-yl)-1,2,5-oxadiazepan-5-yl)(5-methyl-2-(2H-1,2,3-triazol-2-yl)phenyl)methanone] | 97 | 99 | – | – |
| Cc1ccc(-n2nccn2)c(C(=O)N2CCON(c3cc(C)nc(C)c3)CC2)c1 [Example 35, (2-(2,6-dimethylpyridin-4-yl)-1,2,5-oxadiazepan-5-yl)(5-methyl-2-(2H-1,2,3-triazol-2-yl)phenyl)methanone] | -4 | 5 | – | – |
| Cc1ccc(-n2nccn2)c(C(=O)N2CCON(c3ncc4ccccc4n3)CC2)c1 [Example 38, (5-methyl-2-(2H-1,2,3-triazol-2-yl)phenyl)(2-(quinazolin-2-yl)-1,2,5-oxadiazepan-5-yl)methanone] | 92 | 90 | – | – |
| Cc1cc(N2CCN(C(=O)c3cc(C4CCC4)ccc3-n3nccn3)CCO2)nc(C)n1 [Example 41, (5-cyclobutyl-2-(2H-1,2,3-triazol-2-yl)phenyl)(2-(2,6-dimethylpyrimidin-4-yl)-1,2,5-oxadiazepan-5-yl)methanone] | 10 | 56 | – | – |
| Cc1cc(N2CCN(C(=O)c3cc(C#N)ccc3-n3nccn3)CCO2)nc(C)n1 [Example 44, 3-((2-(2,6-dimethylpyrimidin-4-yl)-1,2,5-oxadiazepan-5-yl)carbonyl)-4-(2H-1,2,3-triazol-2-yl)benzonitrile] | -16 | 103 | – | – |
| Cc1cc(C)nc(N2CCN(C(=O)c3ccccc3C#N)CCO2)n1 [Example 45, 2-((2-(4,6-dimethylpyrimidin-2-yl)-1,2,5-oxadiazepan-5-yl)carbonyl)benzonitrile] | 16 | 19 | – | – |
| Cc1cc(C)nc(N2CCN(C(=O)c3ccccc3)CCO2)n1 [Example 46, (2-(4,6-dimethylpyrimidin-2-yl)-1,2,5-oxadiazepan-5-yl) (phenyl)methanone] | 4 | 36 | – | – |
| COc1cccc(OC)c1C(=O)N1CCON(c2nc(C)cc(C)n2)CC1 [Example 47, (2,6-dimethoxyphenyl) (2-(4,6-dimethylpyrimidin-2-yl)-1,2,5-oxadiazepan-5-yl)methanone] | 23 | 97 | – | – |
| COc1cccc(F)c1C(=O)N1CCON(c2nc(C)cc(C)n2)CC1 [Example 48, (2-(4,6-dimethylpyrimidin-2-yl)-1,2,5-oxadiazepan-5-yl) (2-fluoro-6-methoxyphenyl) methanone] | 10 | 73 | – | – |
| Cc1cc(C)nc(N2CCN(C(=O)c3ccccc3Cl)CCO2)n1 [Example 53, (2-chlorophenyl) (2-(4,6-dimethylpyrimidin-2-yl)-1,2,5-oxadiazepan-5-yl)methanone] | 9 | 57 | – | – |
| Cc1cc(C)nc(N2CCN(C(=O)c3cc(Cl)ccc3Cl)CCO2)n1 [Example 54, (2,5-dichlorophenyl) (2-(4,6-dimethylpyrimidin-2-yl)-1,2,5-oxadiazepan-5-yl)methanone] | 16 | 84 | – | – |
| Cc1cc(C)nc(N2CCN(C(=O)c3cccc(Cl)c3Cl)CCO2)n1 [Example 55, (2,3-dichlorophenyl) (2-(4,6-dimethylpyrimidin-2-yl)-1,2,5-oxadiazepan-5-yl)methanone] | 18 | 96 | – | – |
| Cc1cc(C)nc(N2CCN(C(=O)c3ccccc3C)CCO2)n1 [Example 57, (2-(4,6-dimethylpyrimidin-2-yl)-1,2,5-oxadiazepan-5-yl) (2-methylphenyl)methanone] | – | – | 10 | 58 |
| COc1ccc(Cl)cc1C(=O)N1CCON(c2nc(C)cc(C)n2)CC1 [Example 58, (5-chloro-2-methoxyphenyl) (2-(4,6-dimethylpyrimidin-2-yl)-1,2,5-oxadiazepan-5-yl)methanone] | – | – | 29 | 99 |
| Cc1cc(C)nc(N2CCN(C(=O)c3ccc(Cl)cc3Cl)CCO2)n1 [Example 59, (2,4-dichlorophenyl) (2-(4,6-dimethylpyrimidin-2-yl)-1,2,5-oxadiazepan-5-yl)methanone] | – | – | 1 | 65 |

Now from value to compound, other results behind:

| inhibition at 10 µM (human OX1 receptor; [1]) [%] | inhibition at 10 µM (human OX2 receptor; [2]) [%] | SMILES | inhibition at 10 µM (human OX1 receptor) [%] | inhibition at 10 µM (human OX2 receptor) [%] |
| --- | --- | --- | --- | --- |
| 44 | 99 | Cc1ccc(-n2nccn2)c(C(=O)N2CCON(c3cccc(C)n3)CC2)c1 [Example 33, (2-(6-methylpyridin-2-yl)-1,2,5-oxadiazepan-5-yl)(5-methyl-2-(2H-1,2,3-triazol-2-yl)phenyl)methanone] | – | – |
| 67 | 100 | COc1cccc(N2CCN(C(=O)c3ccccc3-c3nccs3)CCO2)n1 [Example 36, (2-(6-methoxypyridin-2-yl)-1,2,5-oxadiazepan-5-yl)(2-(1,3-thiazol-2-yl)phenyl)methanone] | – | – |
| 19 | 85 | COc1cc(N2CCN(C(=O)c3ccccc3-c3nccs3)CCO2)ccn1 [Example 37, (2-(2-methoxypyridin-4-yl)-1,2,5-oxadiazepan-5-yl)(2-(1,3-thiazol-2-yl)phenyl)methanone] | – | – |
| 100 | 98 | Cc1ccc(-n2nccn2)c(C(=O)N2CCON(c3nc4ccc(Cl)cc4o3)CC2)c1 [Example 39, (2-(6-chloro-1,3-benzoxazol-2-yl)-1,2,5-oxadiazepan-5-yl)(5-methyl-2-(2H-1,2,3-triazol-2-yl)phenyl)methanone] | – | – |
| 41 | 101 | Cc1cc(N2CCN(C(=O)c3ccccc3-c3ncccn3)CCO2)nc(C)n1 [Example 42, (2-(2,6-dimethylpyrimidin-4-yl)-1,2,5-oxadiazepan-5-yl)(2-(pyrimidin-2-yl)phenyl)methanone] | – | – |
| 35 | 91 | Cc1cc(N2CCN(C(=O)c3ccccc3-c3ccccn3)CCO2)nc(C)n1 [Example 43, (2-(2,6-dimethylpyrimidin-4-yl)-1,2,5-oxadiazepan-5-yl)(2-(pyridin-2-yl)phenyl)methanone hydrochloride] | – | – |
| 9 | 14 | Cc1cc(C)nc(N2CCN(C(=O)c3cccc(C#N)c3)CCO2)n1 [Example 49, 3-((2-(4,6-dimethylpyrimidin-2-yl)-1,2,5-oxadiazepan-5-yl)carbonyl) benzonitrile] | – | – |
| 3 | -3 | Cc1cc(C)nc(N2CCN(C(=O)c3ccc(C#N)cc3)CCO2)n1 [Example 50, 4-((2-(4,6-dimethylpyrimidin-2-yl)-1,2,5-oxadiazepan-5-yl)carbonyl) benzonitrile] | – | – |
| 22 | 68 | COc1ccccc1C(=O)N1CCON(c2nc(C)cc(C)n2)CC1 [Example 51] | – | – |
| 16 | 96 | COc1ccc(Cl)c(C(=O)N2CCON(c3nc(C)cc(C)n3)CC2)c1 [Example 52, (2-chloro-5-methoxyphenyl) (2-(4,6-dimethylpyrimidin-2-yl)-1,2,5-oxadiazepan-5-yl)methanone] | – | – |
| 21 | 96 | Cc1cc(C)nc(N2CCN(C(=O)c3cc(Cl)cc(Cl)c3)CCO2)n1 [Example 56, (3,5-dichlorophenyl) (2-(4,6-dimethylpyrimidin-2-yl)-1,2,5-oxadiazepan-5-yl)methanone] | – | – |
